From patent US10196357B2, “Biaryl compositions and methods for modulating a kinase cascade” (Athenex, Inc., priority 2007, dated 2019)
Where “and” joins values, the source holds several entries; their conditions need not be identical. Equal values may be shown once. Read-outs that look alike come from different tables or passages of the source.

What was measured:
MDA231 (Breast) = experiment: growth inhibition (BrdU), MDA231; format: cell-based, Human; details: Homo sapiens, MDA-MB-231, MDA-MB-321, BrdU, T=72
Excerpt: (§1) Growth Inhibition. […] T1 values≤T0 values were designated as T, cytotoxicity.

[1] = body weight in GL261 glioma survival study; format: in vivo; details: 5 mg/kg, C57BL/6 mice
Procedure: A brain tumor mouse xenograft study was conducted comparing KX2-361 and KX2-391 (KXO1) to Temodar®. The studies were conducted in C57BL/6 mice. GL261 glioma cells (1×10^5 in 5 μl DMEM) were implanted intracranial coordinates: bregma, lateral 2.0 mm, anterior 1.2 mm, 3.0 mm depth dura. Treatment was initiated 3 days post implantation. The groups were as follows (all doses in 100 μl H2O):
FIGS. 49A-E show the weight gain in each of the C57BL/6 mice in the different treatment groups. The average weight at endpoint for each of the treatment groups is shown below in Table 30. FIG. 50 is a graph showing the average weights over a 40-day period for each of the treatment groups.

CHK1(h) = CHK1(h) (Homo sapiens, UniProt O14757); experiment: isolated kinase activity, CHK1; format: biochemical; details: compound @ 10 μM
Sequence of CHK1(h) (O14757 whole entry): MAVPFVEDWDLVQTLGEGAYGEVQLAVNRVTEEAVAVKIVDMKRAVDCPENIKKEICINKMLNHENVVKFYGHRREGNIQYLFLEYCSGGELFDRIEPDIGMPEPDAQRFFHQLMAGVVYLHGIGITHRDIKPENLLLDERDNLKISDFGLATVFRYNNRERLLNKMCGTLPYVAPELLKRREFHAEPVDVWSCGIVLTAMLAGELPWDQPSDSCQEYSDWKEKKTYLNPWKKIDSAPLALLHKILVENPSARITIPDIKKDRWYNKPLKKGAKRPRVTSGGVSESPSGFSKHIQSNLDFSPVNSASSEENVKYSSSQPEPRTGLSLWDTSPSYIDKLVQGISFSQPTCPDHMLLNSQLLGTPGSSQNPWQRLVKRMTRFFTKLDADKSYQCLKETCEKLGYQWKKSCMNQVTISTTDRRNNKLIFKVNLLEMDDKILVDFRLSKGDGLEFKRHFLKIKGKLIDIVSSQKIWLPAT
Excerpt: (§2) Table 8 illustrates percent activity of isolated kinases in the presence of the AstraZeneca ATP-competitive inhibitor (KX2-328, AZ-28) or KX2-391 relative to control (untreated) isolated kinases.

[2] = system: lung cancer cell line A549; experiment: tumor growth inhibition, A549; format: cell-based, Human; details: Homo sapiens, A549, A549, BrdU, T=72
Excerpt: as §1

[3] = plasma exposure after oral administration; format: in vivo, male CD-1 mice; details: for concentration at 0.5 h / concentration at 1 h / concentration at 2 h / concentration at 5 h / AUC(0-t) / Cmax / Tmax: male, CD-1, mouse; for concentration at 0.5 h / concentration at 1 h / concentration at 2 h / concentration at 5 h: plasma, po; for AUC(0-t) / Cmax / Tmax: Plasma
Procedure: Plasma concentrations were measured in mice after oral administration. All doses were formulated in purified water. Four groups of male CD-1 mice were dosed after an overnight fast and fed 4 hours post-dose. Dosing was as follows:
Protein was precipitated with 0.25 mL acetonitrile for plasma, 0.25 mL for brain. After centrifugation, supernatant was directly injected into an LC/MS system. The limit of quantitation was 1 ng/mL using a 50 μL aliquot for plasma and a 50 μL, aliquot for brain. The standard curve was 1 to 1,000 ng/mL for both plasma and brain. HPLC conditions were as follows:
HPLC System: Shimadzu SCL-10 System
• Analytical Column: Aquasil C18 5 μm 100×2 mm column. • Column Temperature: Ambient temperature • Autosampler Temperature: Ambient temperature • Mobile Phase A) 10 mM Ammonium formate in water (pH 4). • B) Acetonitrile. • Flow Rate: 0.6 mL/min • Injection Volume: 2 μL • Gradient:
• Mass Spectrometry Conditions were as follows: • Instrument: ABI Sciex API 4000 • Mode: ESI+ • Experiment: MRM (multiple reaction monitoring) • Transitions: KX2-391: m/z 432.4→114.2 (Rt=3.11 minute) • KX2-361: m/z 406.1→253.2 (Rt=3.33 minute)

L3.6pl cells = experiment: growth inhibition (BrdU), L3.6pl; format: cell-based, human; details: Homo sapiens, L3.6pl, L3.6pl (Pancreas) cells, single agent
Excerpt: L3.6pl cells are previously described in Trevino et al. Am J Pathol.

PDGFRβ(h) = PDGFRβ(h) (Homo sapiens, UniProt P09619); experiment: isolated kinase activity, PDGFRβ; format: biochemical; details: compound @ 10 μM
Sequence of PDGFRβ(h) (P09619 33-1106): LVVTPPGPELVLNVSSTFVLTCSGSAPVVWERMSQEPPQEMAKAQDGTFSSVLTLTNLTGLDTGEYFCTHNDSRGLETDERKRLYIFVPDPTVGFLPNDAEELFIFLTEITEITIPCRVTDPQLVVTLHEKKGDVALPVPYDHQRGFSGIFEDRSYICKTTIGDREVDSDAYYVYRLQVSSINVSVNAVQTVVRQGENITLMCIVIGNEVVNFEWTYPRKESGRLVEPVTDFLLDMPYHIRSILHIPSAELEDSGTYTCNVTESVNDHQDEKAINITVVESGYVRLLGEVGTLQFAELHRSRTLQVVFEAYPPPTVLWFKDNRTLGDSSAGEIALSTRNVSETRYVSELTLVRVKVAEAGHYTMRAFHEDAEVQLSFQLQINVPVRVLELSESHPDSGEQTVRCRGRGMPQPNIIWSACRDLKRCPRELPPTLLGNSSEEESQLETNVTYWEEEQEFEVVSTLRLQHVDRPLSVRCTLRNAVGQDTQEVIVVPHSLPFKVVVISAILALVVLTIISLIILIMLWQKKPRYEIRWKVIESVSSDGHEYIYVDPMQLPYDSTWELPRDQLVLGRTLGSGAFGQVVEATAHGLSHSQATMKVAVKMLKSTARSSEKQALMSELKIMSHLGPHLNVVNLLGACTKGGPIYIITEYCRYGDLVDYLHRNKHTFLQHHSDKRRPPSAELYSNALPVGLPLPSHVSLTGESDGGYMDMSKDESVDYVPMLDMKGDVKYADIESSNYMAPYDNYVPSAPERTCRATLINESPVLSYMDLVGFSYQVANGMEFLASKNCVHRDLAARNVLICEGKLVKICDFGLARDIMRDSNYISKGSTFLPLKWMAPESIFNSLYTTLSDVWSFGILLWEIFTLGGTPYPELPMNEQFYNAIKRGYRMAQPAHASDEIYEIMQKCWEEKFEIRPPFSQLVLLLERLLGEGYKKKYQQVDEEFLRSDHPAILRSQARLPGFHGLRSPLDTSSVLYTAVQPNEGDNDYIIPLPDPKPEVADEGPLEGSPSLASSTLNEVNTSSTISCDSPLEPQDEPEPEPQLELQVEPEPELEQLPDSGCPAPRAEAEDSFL
Excerpt: as §2

K562 (CML) = experiment: growth inhibition (BrdU), K562; format: cell-based, Human; details: Homo sapiens, K562, K562, BrdU, T=72
Excerpt: as §1

SKOV-3 (Ovarian) = experiment: growth inhibition (BrdU), SKOV-3; format: cell-based, Human; details: Homo sapiens, SK-OV-3, SKOV-3, BrdU, T=72
Excerpt: as §1

## O=C(Cc1ccc(-c2ccc(OCCN3CCOCC3)cc2)cn1)NCc1ccccc1 [KX2-391]
MDA231 (Breast)
  GI50: 19.8 nM
[1]
  Average weight at endpoint: 14.3 g
CHK1(h)
  percent activity of isolated kinase relative to control: 105%
[2]
  GI50: 9.39 nM
[3]; 10 mg/kg, single PO dose 10 mg/kg (Group 1), 0.5 hr, read-out: Plasma Concentrations, Group A, B, C
  concentration at 0.5 h: 779 ng/mL
[3]; 10 mg/kg, single PO dose 10 mg/kg (Group 1), 0.5 hr, read-out: Plasma Concentrations, Mean
  concentration at 0.5 h: 871 ng/mL
[3]; 10 mg/kg, single PO dose 10 mg/kg (Group 1), 1 hr, read-out: Plasma Concentrations, Mean
  concentration at 1 h: 363 ng/mL
[3]; 10 mg/kg, single PO dose 10 mg/kg (Group 1), 2 hr, read-out: Plasma Concentrations, Group A, B, C
  concentration at 2 h: 328 ng/mL
[3]; 10 mg/kg, single PO dose 10 mg/kg (Group 1), 2 hr, read-out: Plasma Concentrations, Mean
  concentration at 2 h: 287 ng/mL
[3]; 10 mg/kg, single PO dose 10 mg/kg (Group 1), 5 hr, read-out: Plasma Concentrations, Group A, B, C
  concentration at 5 h: 133 ng/mL
[3]; 10 mg/kg, single PO dose 10 mg/kg (Group 1), 5 hr, read-out: Plasma Concentrations, Mean
  concentration at 5 h: 147 ng/mL
[3]; 50 mg/kg, single PO dose 50 mg/kg (Group 2), 0.5 hr, read-out: Plasma Concentrations, Group A, B, C
  concentration at 0.5 h: 8510 ng/mL
[3]; 50 mg/kg, single PO dose 50 mg/kg (Group 2), 0.5 hr, read-out: Plasma Concentrations, Mean
  concentration at 0.5 h: 9720 ng/mL
[3]; 50 mg/kg, single PO dose 50 mg/kg (Group 2), 1 hr, read-out: Plasma Concentrations, Group A, B, C
  concentration at 1 h: 2370 ng/mL
[3]; 50 mg/kg, single PO dose 50 mg/kg (Group 2), 1 hr, read-out: Plasma Concentrations, Mean
  concentration at 1 h: 2060 ng/mL
[3]; 50 mg/kg, single PO dose 50 mg/kg (Group 2), 2 hr, read-out: Plasma Concentrations, Group A, B, C
  concentration at 2 h: 1150 ng/mL
[3]; 50 mg/kg, single PO dose 50 mg/kg (Group 2), 2 hr, read-out: Plasma Concentrations, Mean
  concentration at 2 h: 1510 ng/mL
[3]; 50 mg/kg, single PO dose 50 mg/kg (Group 2), 5 hr, read-out: Plasma Concentrations, Mean
  concentration at 5 h: 922 ng/mL
[3]; single oral dose 10 mg/kg
  AUC(0-t): 1500 ng·h/mL
  Cmax: 871 ng/mL
  Tmax: 30 min
[3]; single oral dose 50 mg/kg
  AUC(0-t): 10800 ng·h/mL
  Cmax: 9720 ng/mL
  Tmax: 30 min
[3]; single PO dose 10 mg/kg (Group 1), 0.5 hr, 10 mg/kg
  Plasma Concentrations, Group A, B, C: 1096.62 ng/mL and 737.37 ng/mL
[3]; single PO dose 10 mg/kg (Group 1), 2 hr, 10 mg/kg
  Plasma Concentrations, Group A, B, C: 271.89 ng/mL and 261.57 ng/mL
[3]; single PO dose 10 mg/kg (Group 1), 5 hr, 10 mg/kg
  Plasma Concentrations, Group A, B, C: 147.74 ng/mL and 160.62 ng/mL
[3]; single PO dose 50 mg/kg (Group 2), 0.5 hr, 50 mg/kg
  Plasma Concentrations, Group A, B, C: 8334.53 ng/mL and 12315.31 ng/mL
[3]; single PO dose 50 mg/kg (Group 2), 1 hr, 50 mg/kg
  Plasma Concentrations, Group A, B, C: 2442.20 ng/mL and 1365.56 ng/mL
[3]; single PO dose 50 mg/kg (Group 2), 2 hr, 50 mg/kg
  Plasma Concentrations, Group A, B, C: 1546.09 ng/mL and 1850.18 ng/mL
L3.6pl cells
  GI50: 53 nM
PDGFRβ(h)
  percent activity of isolated kinase relative to control: 110%
K562 (CML)
  GI50: 10.9 nM
SKOV-3 (Ovarian)
  GI50: 9.75 nM
